Results: patent US20250082587A1, “Method Of Treating Major Depressive Disorder” (CLEXIO BIOSCIENCES LTD., priority 2023, published 2025)

System: subjects with MDD with an inadequate response to standard antidepressant therapy
Experiment: Phase 2, randomized double blind study of 40 mg immediate release once daily esketamine as adjunct therapy; change in MADRS score
Format: in vivo, human
Details: for Change from baseline against placebo (MADRS): sub-analysis, 40 mg oral once daily
Experimental: A Phase 2, randomized double blind study to assess the safety and efficacy of 40 mg immediate release once daily esketamine as an adjunct therapy for subjects with MDD with an inadequate response to standard antidepressant therapy.
The safety and efficacy of 65 subjects with MDD with an inadequate response to standard antidepressant therapy were assessed in a Phase 2, randomized double blind study following the administration of 40 mg of immediate release once daily esketamine as adjunct therapy.
The study comprised 3 phases, screening (Days 0-28), double-blind treatment (days 29-56) and post-treatment safety follow-up (days 57-70) following the last study treatment administration.
The study's primary efficacy endpoint was the change from baseline to week 4 in the 10 item Montgomery-Åsberg Depression Rating Scale (MADRS). Key secondary efficacy endpoints included the change in the self-rated Symptoms of Depression Questionnaire (SDQ) from Baseline to Week 4, the change in the Sheehan Disability Scale (SDS) from Baseline to Week 4, the change in the MADRS score from Baseline to Week 2 and the change in the Clinical Global Impression-Severity (CGI-S) from Baseline to Week 4.
During screening, subjects were assessed for study eligibility and washed out from disallowed drugs. Inclusion criteria for the study included the subjects presenting with a baseline MADRS of at least 24.
After being found eligible, subjects were randomized to receive once daily, either placebo or 40 mg of oral, immediate release, esketamine, respectively.
Subjects received the first dose of their study drug at the study site and were then closely monitored for 3 hours to assess for potential neuropsychiatric adverse events using a comprehensive set of scales to identify sleepiness, sedation and dissociative effects. Thereafter, the subject was provided with a 1 week supply of the study drug for administration at their place of residence and instructed to take the study drug in the evening (except at the day of the weekly visit when it is taken at the study site) and not to drive for at least 8 hours following the dosing. At every subject visit, a psychiatrist evaluated the subject's MADRS score.

SMILES: CN[C@]1(c2ccccc2Cl)CCCCC1=O [esketamine, (2S)-2-(2-Chlorophenyl)-2-(methylamino)cyclohexanone]
- improvement in the symptoms (baseline MADRS of 28 or more, 40 mg immediate release oral, 28 days): statistically significant improvement
- improvement in depression symptoms (baseline MADRS of less than 28, 40 mg immediate release oral, 28 days): no identifiable improvement
- Change from baseline against placebo (MADRS) (baseline MADRS score <28, 28 days): +4.25
- Change from baseline against placebo (MADRS) (baseline MADRS score ≥28, 28 days, p value 0.005): −7.425
- Change from baseline against placebo (MADRS) (baseline MADRS score ≥33, 28 days, p value 0.050): −5.978
- primary efficacy endpoint (change from baseline to week 4 in MADRS) between treatment groups (subjects who completed the study, 40 mg oral once daily vs placebo): clinically meaningful and statistically significant
